Data published in paper PMC11844072, “Novel 5,6-dichlorobenzimidazole derivatives as dual BRAFWT and BRAFV600E inhibitors: design, synthesis, anti-cancer activity and molecular dynamics simulations” (BMC Chemistry, 2025).

Columns and labels:
Experiment in all cases: NCI 60 single concentration growth inhibition
Type in all cases: cell-based, human
MDA-MB-435 = details: MDA-MB-435, Melanoma; for inhibition at 10 µM: Homo sapiens, read-out: GI%
Experimental: (§1) The synthesized dichlorobenzimidazoles 10a–p were assayed for their influence on divers cancer cell lines according to the method presented in the Additional file A.
(§2) 5. Screening of cytotoxic activity against a panel of sixty human tumor cell lines
(§3) The selected compounds by NCI were evaluated for their anticancer activity in a two-stage process. First, these compounds were screened against the full NCI 60 cell lines panel at a single high dose of 10 µM. Then, the output from the single dose screen is reported as a mean graph. […]
(§4) at five different minimal concentrations.
(§5) Assay protocol. The human tumor cell lines of the cancer screening panel are grown in RPMI 1640 medium containing 5% fetal bovine serum and 2 mM L-glutamine. For a typical screening experiment, cells are inoculated into 96 well microtiter plates in 100 µL at plating densities ranging from 5000 to 40,000 cells/well depending on the doubling time of individual cell lines. After cell inoculation, the microtiter plates are incubated at 37 °C, 5% CO 2, 95% air and 100% relative humidity for 24 h prior to addition of the experimental drugs.
(§6) After 24 h, two plates of each cell line are fixed in situ with TCA, to represent a measurement of the cell population for each cell line at the time of drug addition (Tz). The experimental drugs are solubilized in dimethyl sulfoxide at 400-fold the desired final maximum test concentration and stored frozen prior to use. At the time of drug addition, an aliquot of frozen concentrate is thawed and diluted to twice the desired final maximum test concentration with complete medium containing 50 µg/mL gentamicin. Additional four, 10-fold or ½ log serial dilutions are made to provide a total of five drug concentrations plus control.
(§7) Aliquots of […] of these different drug dilutions are added to the appropriate microtiter wells already containing […] of medium, resulting in the required final drug concentrations.
(§8) Following drug addition, the plates are incubated for an additional 48 h at 37 °C, 5% CO 2, 95% air, and 100% relative humidity. For adherent cells, the assay is terminated by the addition of cold TCA.
(§9) Cells are fixed in situ by the gentle addition of 50 µL of cold 50% (w/v) TCA (final concentration, 10% TCA) and incubated for 60 min at 4 °C. The supernatant is discarded, and the plates are washed five times with tap water and air dried. Sulforhodamine B (SRB) solution ([…]) at 0.4% (w/v) in 1% acetic acid is added to each well, and plates are incubated for 10 min at room temperature. After staining, unbound dye is removed by washing five times with 1% acetic acid and the plates are air dried. Bound stain is subsequently solubilized with 10 mM trizma base, and the absorbance is read on an automated plate reader at a wavelength of 515 nm. For suspension cells, the methodology is […]
(§10) the same except that the assay is terminated by fixing settled cells at the bottom of the wells by gently adding 50 µl of 80% TCA (final concentration, 16% TCA). Using the seven absorbance measurements [time zero, (Tz), control growth, (C), and test growth in the presence of drug at the five concentration levels (Ti)], the percentage growth is calculated at each of the drug concentrations […]
(§11) Percentage growth inhibition is calculated as: [(Ti Tz)/(C–Tz)] x 100 for concentrations for which Ti>/=Tz and [(Ti-Tz)/Tz] x 100 for concentrations for which Ti < Tz.
(§12) Three dose response parameters are calculated for each experimental agent. Growth […]
(§13) concentration resulting in a 50% reduction in the net protein increase (as measured by SRB staining) in control cells during the drug incubation. The drug concentration resulting in total growth inhibition (TGI) is calculated from Ti = Tz. […]
(§14) reduction in the measured protein at the end of the drug treatment as compared to that at the beginning) indicating a net loss of cells following treatment is calculated from [(Ti–Tz)/Tz] x 100 =
(§15) _50. Values are calculated for each of these three parameters if the level of activity is reached; […]

A498 = details: A498, Renal cancer; for inhibition at 10 µM: Homo sapiens, read-out: GI%
Experimental: as §1, §2, §3, §4, §5, §6, §7, §8, §9, §10, §11, §12, §13, §14, §15

NCI-H23 = details: NCI-H23, Non-small cell lung cancer; for inhibition at 10 µM: Homo sapiens, read-out: GI%
Experimental: as §1, §2, §3, §4, §5, §6, §7, §8, §9, §10, §11, §12, §13, §14, §15

CCRF-CEM = details: Leukemia; for inhibition at 10 µM: Homo sapiens, read-out: GI%
Experimental: as §1, §2, §3, §4, §5, §6, §7, §8, §9, §10, §11, §12, §13, §14, §15

UACC-257 = details: UACC-257, Melanoma; for inhibition at 10 µM: Homo sapiens, read-out: GI%
Experimental: as §1, §2, §3, §4, §5, §6, §7, §8, §9, §10, §11, §12, §13, §14, §15

HCT-116 = details: HCT-116, Colon cancer; for inhibition at 10 µM: Homo sapiens, read-out: GI%
Experimental: as §1, §2, §3, §4, §5, §6, §7, §8, §9, §10, §11, §12, §13, §14, §15

SF-268 = details: SF-268, CNS cancer; for inhibition at 10 µM: Homo sapiens, read-out: GI%
Experimental: as §1, §2, §3, §4, §5, §6, §7, §8, §9, §10, §11, §12, §13, §14, §15

A549/ATCC = details: Non-small cell lung cancer; for inhibition at 10 µM: Homo sapiens, read-out: GI%
Experimental: as §1, §2, §3, §4, §5, §6, §7, §8, §9, §10, §11, §12, §13, §14, §15

HOP-62 = details: HOP-62, Non-small cell lung cancer; for inhibition at 10 µM: Homo sapiens, read-out: GI%
Experimental: as §1, §2, §3, §4, §5, §6, §7, §8, §9, §10, §11, §12, §13, §14, §15

M14 = details: M14, Melanoma; for inhibition at 10 µM: Homo sapiens, read-out: GI%
Experimental: as §1, §2, §3, §4, §5, §6, §7, §8, §9, §10, §11, §12, §13, §14, §15

EKVX = details: Non-small cell lung cancer; for inhibition at 10 µM: Homo sapiens, read-out: GI%
Experimental: as §1, §2, §3, §4, §5, §6, §7, §8, §9, §10, §11, §12, §13, §14, §15

MOLT-4 = details: MOLT-4, Leukemia; for inhibition at 10 µM: Homo sapiens, read-out: GI%
Experimental: as §1, §2, §3, §4, §5, §6, §7, §8, §9, §10, §11, §12, §13, §14, §15

OVCAR-5 = details: OVCAR-5, Ovarian cancer; for inhibition at 10 µM: Homo sapiens, read-out: GI%
Experimental: as §1, §2, §3, §4, §5, §6, §7, §8, §9, §10, §11, §12, §13, §14, §15

SK-MEL-2 = details: SK-MEL-2, Melanoma; for inhibition at 10 µM: Homo sapiens, read-out: GI%
Experimental: as §1, §2, §3, §4, §5, §6, §7, §8, §9, §10, §11, §12, §13, §14, §15

HL-60(TB) = details: Leukemia; for inhibition at 10 µM: Homo sapiens, read-out: GI%
Experimental: as §1, §2, §3, §4, §5, §6, §7, §8, §9, §10, §11, §12, §13, §14, §15

786-0 = details: 786-0, Renal cancer; for inhibition at 10 µM: Homo sapiens, read-out: GI%
Experimental: as §1, §2, §3, §4, §5, §6, §7, §8, §9, §10, §11, §12, §13, §14, §15

NCI-H226 = details: NCI-H226, Non-small cell lung cancer; for inhibition at 10 µM: Homo sapiens, read-out: GI%
Experimental: as §1, §2, §3, §4, §5, §6, §7, §8, §9, §10, §11, §12, §13, §14, §15

RPMI-8226 = details: RPMI-8226, Leukemia; for inhibition at 10 µM: Homo sapiens, read-out: GI%
Experimental: as §1, §2, §3, §4, §5, §6, §7, §8, §9, §10, §11, §12, §13, §14, §15

SF-295 = details: SF-295, CNS cancer; for inhibition at 10 µM: Homo sapiens, read-out: GI%
Experimental: as §1, §2, §3, §4, §5, §6, §7, §8, §9, §10, §11, §12, §13, §14, §15

HS 578T = details: Breast cancer; for inhibition at 10 µM: Homo sapiens, read-out: GI%
Experimental: as §1, §2, §3, §4, §5, §6, §7, §8, §9, §10, §11, §12, §13, §14, §15

CAKI-1 = details: CAKI-1, Renal cancer; for inhibition at 10 µM: Homo sapiens, read-out: GI%
Experimental: as §1, §2, §3, §4, §5, §6, §7, §8, §9, §10, §11, §12, §13, §14, §15

SR = details: Homo sapiens, Leukemia, read-out: GI%
Experimental: as §1, §2, §3, §4, §5, §6, §7, §8, §9, §10, §11, §12, §13, §14, §15

3-(4-((2-(2-(5,6-Dichloro-2-(4-methoxyphenyl)-1H-benzo[d]imidazol-1-yl)acetyl)hydrazono)methyl)phenoxy)propanoic acid [Compound 10i]
GI% (MDA-MB-435; 10 μM): 7.59%
GI% (A498; 10 μM): – (GI% < 5%)
GI% (NCI-H23; 10 μM): 13.85%
GI% (CCRF-CEM; 10 μM): 10.70%
GI% (UACC-257; 10 μM): – (GI% < 5%)
GI% (HCT-116; 10 μM): 11.45%
GI% (SF-268; 10 μM): – (GI% < 5%)
GI% (A549/ATCC; 10 μM): – (GI% < 5%)
GI% (HOP-62; 10 μM): – (GI% < 5%)
GI% (M14; 10 μM): – (GI% < 5%)
GI% (EKVX; 10 μM): 20.53%
GI% (MOLT-4; 10 μM): – (GI% < 5%)
GI% (OVCAR-5; 10 μM): – (GI% < 5%)
GI% (SK-MEL-2; 10 μM): – (GI% < 5%)
GI% (HL-60(TB); 10 μM): – (GI% < 5%)
GI% (786-0; 10 μM): 5.33%
GI% (NCI-H226; 10 μM): 23.02%
GI% (RPMI-8226; 10 μM): – (GI% < 5%)
GI% (SF-295; 10 μM): 15.06%
GI% (HS 578T; 10 μM): – (GI% < 5%)
GI% (CAKI-1; 10 μM): 10.19%

COc1ccc(-c2nc3cc(Cl)c(Cl)cc3n2CC(=O)NN=Cc2cccc(O)c2)cc1 [Compound 10a, 2-(5,6-Dichloro-2-(4-methoxyphenyl)-1H-benzo[d]imidazol-1-yl)-N'-(3-hydroxybenzylidene)acetohydrazide]
inhibition at 10 µM (SR): 42%
inhibition at 10 µM (MDA-MB-435): 45.9%
inhibition at 10 µM (A498): 48.9%
inhibition at 10 µM (NCI-H23): 53.8%
inhibition at 10 µM (CCRF-CEM): 40.6%
inhibition at 10 µM (UACC-257): 57.7%
inhibition at 10 µM (HCT-116): 59.6%
inhibition at 10 µM (SF-268): 51.5%
inhibition at 10 µM (A549/ATCC): 62.5%
inhibition at 10 µM (HOP-62): 24.1%
inhibition at 10 µM (M14): 41.1%
inhibition at 10 µM (EKVX): 76.6%
inhibition at 10 µM (MOLT-4): 70.4%
inhibition at 10 µM (OVCAR-5): 20.5%
inhibition at 10 µM (SK-MEL-2): 33.6%
inhibition at 10 µM (HL-60(TB)): 42.6%
inhibition at 10 µM (786-0): 28.6%
inhibition at 10 µM (NCI-H226): 43.7%
inhibition at 10 µM (RPMI-8226): 67.4%
inhibition at 10 µM (SF-295): 67.8%
inhibition at 10 µM (HS 578T): 36.9%
inhibition at 10 µM (CAKI-1): 55%

CCOC(=O)C(C)Oc1ccc(C=NNC(=O)Cn2c(-c3ccc(OC)cc3)nc3cc(Cl)c(Cl)cc32)cc1 (stereo not shown) [Compound 10j, Ethyl-2-(4-((2-(2-(5,6-dichloro-2-(4-methoxyphenyl)-1H-benzo[d]imidazol-1-yl)acetyl) hydrazono)methyl)phenoxy)propanoate]
inhibition at 10 µM (MDA-MB-435): 24.8%
inhibition at 10 µM (A498): < 5%
inhibition at 10 µM (NCI-H23): 20.8%
inhibition at 10 µM (CCRF-CEM): 25.8%
inhibition at 10 µM (UACC-257): < 5%
inhibition at 10 µM (HCT-116): 32.3%
inhibition at 10 µM (SF-268): 14.3%
inhibition at 10 µM (A549/ATCC): < 5%
inhibition at 10 µM (HOP-62): < 5%
inhibition at 10 µM (M14): 9.09%
inhibition at 10 µM (EKVX): 21.7%
inhibition at 10 µM (MOLT-4): 53.2%
inhibition at 10 µM (OVCAR-5): < 5%
inhibition at 10 µM (SK-MEL-2): 8.36%
inhibition at 10 µM (HL-60(TB)): 6.19%
inhibition at 10 µM (786-0): 11.3%
inhibition at 10 µM (NCI-H226): 7.33%
inhibition at 10 µM (RPMI-8226): 40.2%
inhibition at 10 µM (SF-295): 21%
inhibition at 10 µM (HS 578T): < 5%
inhibition at 10 µM (CAKI-1): 9.1%
